Source: patent publication US20240300980A1, “HETEROCYCLIC COMPOUNDS AS KRAS INHIBITOR, AND PREPARATION THEREFOR AND USE THEREOF IN TREATMENT” (SHANGHAI KECHOW PHARMA, INC., priority 2021, published 2024)

Tested on: AGS cells (KRAS^G12D)
Experiment: Detection of cell proliferation in vitro by MTT/MTS method (cell activity experiment)
Type: cell-based
Details: AGS cells; MTT/MTS; 3 days of drug treatment; read-out: AGS IC50
Procedure, shortened: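 KRAS G12D AGS cells seeded at 1000 per well, compound added 24 h later, 0.5% final DMSO. Viability read after 3 days of treatment by MTT (solubilised in DMSO) or MTS, 4 h, absorbance 490 nm. IC50 from dose–response curves versus DMSO control.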

Structure (SMILES) | IC50
C#Cc1c(F)ccc2cc(O)cc(-c3ccc4c(N5C[C@H]6CC[C@@H](C5)[C@@H]6F)nc(OC[C@@]56CCCN5C[C@H](F)C6)nc4c3F)c12 [Example 123, 5-ethynyl-6-fluoro-4-(8-fluoro-4-((1R,5S, 8R)-8-fluoro-3-azabicyclo[3.2.1]octan-3-yl)-2-(((2R,7aS)-2-fluorotetrahydro-1H-pyrrolizin-7a(5H)-yl)methoxy)quinazolin-7-yl)naphthalen-2-ol] | > 2.5 µM

Same assay, conditions: Homo sapiens, AGS, 72 h, AGS cells; MTT/MTS; 3 days of drug treatment; read-out: AGS IC50

Structure (SMILES) | IC50
Oc1cc(-c2ncc3c(N4C[C@H]5CC[C@@H](C4)N5)nc(OCC4(CN5CCCC5)CC4)nc3c2F)c2c(F)c(F)ccc2c1 [Example 5, 4-(4-((1R,5S)-3,8-diazabicyclo[3.2.1]octan-3-yl)-8-fluoro-2-((1-(pyrrolidin-1-ylmethyl)cyclopropyl)methoxy)pyrido[4,3-d]pyrimidin-7-yl)-5,6-difluoronaphthalen-2-ol] | 0.0038 µM
CCc1c(F)ccc2cc(O)cc(N3CCc4c(nc(OC[C@]56CCCN5[C@@H](COC(=O)N(C)C)CC6)nc4N4C[C@H]5CC[C@@H](C4)N5)C3)c12 [Example 210, ((3R,7aR)-7a-(((4-((1R,5S)-3,8-diazabicyclo[3.2.1]octan-3-yl)-7-(8-ethyl-7-fluoro-3-hydroxynaphthalen-1-yl)-5,6,7,8-tetrahydropyrido[3,4-d]pyrimidin-2-yl)oxy)methyl)hexahydro-1H-pyrrolizin-3-yl)methyl dimethylcarbamate] | 0.065 µM
CCc1cccc2cc(O)cc(-c3ccc4c(N5C[C@H]6CC[C@@H](C5)N6)nc(OCC5(CN6CCCC6)CC5)nc4c3F)c12 [Example 104, 4-(4-((1R,5S)-3,8-diazabicyclo[3.2.1]octan-3-yl)-8-fluoro-2-((1-(pyrrolidin-1-ylmethyl)cyclopropyl)methoxy)quinazolin-7-yl)-5-ethylnaphthalen-2-ol] | 0.057 µM
C#Cc1c(F)ccc2cc(O)cc(-c3ccc4c(N5CCC6(CCCN6)CC5)nc(OC[C@@]56CCCN5C[C@H](F)C6)nc4c3F)c12 [Example 90, 5-ethynyl-6-fluoro-4-(8-fluoro-2-(((2R,7aS)-2-fluorotetrahydro-1H-pyrrolizin-7a(5H)-yl)methoxy)-4-(1,8-diazaspiro[4,5]decan-8-yl)quinazolin-7-yl)naphthalen-2-ol] | 8.92 µM
Cc1cc(N)nc(-c2ccc3c(N4C[C@H]5CC[C@@H](C4)N5)nc(OC[C@@]45CCCN4C[C@H](F)C5)nc3c2F)c1C1CC1 [Example 139, 6-(4-((1R,5S)-3,8-diazabicyclo[3.2.1]octan-3-yl)-8-fluoro-2-(((2R,7aS)-2-fluorotetrahydro-1H-pyrrolizin-7a(5H)-yl)methoxy)quinazolin-7-yl)-5-cyclopropyl-4-methylpyridin-2-amine] | > 2.5 µM
CCc1c(F)ccc2cc(O)cc(-c3ncc4c(N5CC6CCC(C5)C6F)nc(OC[C@@]56CCCN5C[C@H](F)C6)nc4c3F)c12 (stereo partly drawn) [Example 35, 5-ethyl-6-fluoro-4-(8-fluoro-4-((1R,5S,8R)-8-fluoro-3-azabicyclo [3.2.1]octan-3-yl)-2-(((2R,7aS)-- fluorotetrahydro-1H-pyrrolizin-7a(5H)-yl)methoxy)pyrido[4,3-d]pyrimidin-7-yl) naphthalen-2-ol] | > 2.5 µM
Oc1cc2c(c(-c3ccc4c(N5C[C@H]6CC[C@@H](C5)N6)nc(OC[C@@]56CCCN5C[C@H](F)C6)nc4c3F)c1)CCCC2 [Example 420, 4-(4-((1R,5S)-3,8-diazabicyclo[3.2.1]octan-3-yl)-8-fluoro-2-(((2R,7aS)-2-fluorotetrahydro-1H-pyrrolizin-7a(5H)-yl)methoxy)quinazolin-7-yl)-5,6,7,8-tetrahydronaphthalen-2-ol] | 0.06 µM
Oc1cc(-c2ccc3c(N4C[C@H]5CC[C@@H](C4)N5)nc(OCC4(CN5CCCC5)CC4)nc3c2F)c2c(F)c(F)ccc2c1 [Example 101, 4-(4-((1R,5S)-3,8-diazabicyclo[3.2.1]octan-3-yl)-8-fluoro-2-((1-(pyrrolidin-1-ylmethyl)cyclopropyl)methoxy)quinazolin-7-yl)-5,6-difluoronaphthalen-2-ol] | 0.0094 µM
C[C@@H]1CCCc2cc(O)cc(-c3ncc4c(N5CC6CCC(C5)N6)nc(OC[C@@]56CCCN5C[C@H](F)C6)nc4c3F)c21 (single isomer, unassigned) [Example 225, (R)-4-(4-((1R,5S)-3,8-diazabicyclo[3.2.1]octan-3-yl)-8-fluoro-2-(((2R,7aS)-2-fluorotetrahydro-1H-pyrrolizin-7a(5H)-yl)methoxy)pyrido[4,3-d]pyrimidin-7-yl)-5-methyl-5,6,7,8-tetrahydronaphthalen-2-ol or (S)-4-(4-((1R,5S)-3,8-diazabicyclo[3.2.1]octan-3-yl)-8-fluoro-2-(((2R,7aS)-2-fluorotetrahydro-1H-pyrrolizin-7a(5H)-yl)methoxy)pyrido[4,3-d]pyrimidin-7-yl)-5-methyl-5,6,7,8-tetrahydronaphthalen-2-ol] | 0.668 µM
C#Cc1cccc2cc(O)cc(-c3ccc4c(N5C[C@H]6CC[C@@H](C5)N6)nc(OCC5(CN6CCCC6)CC5)nc4c3F)c12 [Example 103, 4-(4-((1R,5S)-3,8-diazabicyclo[3.2.1]octan-3-yl)-8-fluoro-2-((1-(pyrrolidin-1-ylmethyl)cyclopropyl)methoxy)quinazolin-7-yl)-5-ethynylnaphthalen-2-ol] | 0.029 µM
C#Cc1c(F)ccc2cc(O)cc(-c3ncc4c(N5CC6(CNC6)C5)nc(OC[C@@]56CCCN5C[C@H](F)C6)nc4c3F)c12 [Example 70, 5-ethynyl-6-fluoro-4-(8-fluoro-2-(((2R, 7aS)-2-fluorotetrahydro-1H-pyrrolizin-7a(5H)-yl)methoxy)-4-(2,6-diazaspiro[3.3]heptan-2-yl)pyrido[4,3-d]pyrimidin-7-yl)naphthalen-2-ol] | > 2.5 µM
CCC1CCc2cc(O)cc(C3=C(F)c4nc(OC[C@@]56CCCN5C[C@H](F)C6)nc(N5C[C@H]6CC[C@@H](C5)N6)c4C4=NCCN43)c21 (stereo partly drawn) [Example 408, 7-(10-((1R,5S)-3,8-diazabicyclo[3.2.1]octan-3-yl)-6-fluoro-8-(((2R,7aS)-2-fluorotetrahydro-1H-pyrrolizin-7a(5H)-yl)methoxy)-2,3-dihydroimidazo[1′,2′:1,2]pyrido[4,3-d]pyrimidin-5-yl)-1-ethyl-2,3-dihydro-1H-inden-5-ol] | 0.041 µM
CCC1COc2cc(O)cc(-c3ccc4c(N5C[C@H]6CC[C@@H](C5)N6)nc(OC[C@@]56CCCN5C[C@H](F)C6)nc4c3F)c21 (stereo partly drawn) [Example 292, 4-(4-((1R,5S)-3,8-diazabicyclo[3.2.1]octan-3-yl)-8-fluoro-2-(((2R,7aS)-2-fluorotetrahydro-1H-pyrrolizin-7a(5H)-yl)methoxy)quinazolin-7-yl)-3-ethyl-2,3-dihydrobenzofuran-6-ol] | 0.04 µM
C#Cc1c(F)ccc2cc(O)cc(-c3ccc4c(N5CC(C(C)N)C5)nc(OC[C@@]56CCCN5C[C@H](F)C6)nc4c3F)c12 (stereo partly drawn) [Example 213, 4-(4-(3-(1-aminoethyl)azetidin-1-yl)-8-fluoro-2-(((2R,7aS)-2-fluorotetrahydro-1H-pyrrolizin-7a(5H)-yl)methoxy)quinazolin-7-yl)-5-ethynyl-6-fluoronaphthalen-2-ol] | > 2.5 µM
Oc1cc(-c2ncc3c(N4CC5CCC(C4)C5F)nc(OC[C@@]45CCCN4C[C@H](F)C5)nc3c2F)c2c(F)c(F)ccc2c1 (stereo partly drawn) [Example 37, 5,6-difluoro-4-(8-fluoro-4-((1R,5S,8R)-8-fluoro-3-azabicyclo[3.2.1]octan-3-yl)-2-(((2R,7aS)-2-fluorotetrahydro-1H-pyrrolizin-7a(5H)-yl)methoxy)pyrido[4,3-d]pyrimidin-7-yl) naphthalen-2-ol] | > 2.5 µM
CCc1c(F)ccc2cc(O)cc(-c3ncc4c(C5C[C@H]6CC[C@@H](C5)N6)nc(OC[C@@]56CCCN5C[C@H](F)C6)nc4c3F)c12 (stereo partly drawn) [Example 80, 4-(4-((1R,5S)-8-azabicyclo[3.2.1]octan-3-yl)-8-fluoro-2-(((2R,7aS)-2-fluorotetrahydro-1H-pyrrolizin-7a(5H)-yl)methoxy)pyrido[4,3-d]pyrimidin-7-yl)-5-ethyl-6-fluoronaphthalen-2-ol] | > 2.5 µM
C#Cc1nccc2cc(O)cc(-c3ncc4c(NCC5(N(C)C)CCC5)nc(OC[C@@]56CCCN5C[C@H](F)C6)nc4c3F)c12 [Example 424, 8-(4-(((1-(dimethylamino)cyclobutyl)methyl)amino)-8-fluoro-2-(((2R,7aS)-2-fluorotetrahydro-1H-pyrrolizin-7a(5H)-yl)methoxy)pyrido[4,3-d]pyrimidin-7-yl)-1-ethynylisoquinolin-6-ol] | 0.03 µM
C#Cc1cccc2cc(O)cc(-c3ncc4c(N5C[C@H]6CC[C@@H](C5)N6)nc(OCC5(CN6CCCC6)CC5)nc4c3F)c12 [Example 1, 4-(4-((1R,5S)-3,8-diazabicyclo[3.2.1]octan-3-yl)-8-fluoro-2-((1-(pyrrolidin-1-ylmethyl)cyclopropyl)methoxy)pyrido[4,3-d]pyrimidin-7-yl)-5-ethynyl naphthalen-2-ol] | 0.0081 µM
CC1CCc2cc(O)cc(-c3ccc4c(N5C[C@H]6CC[C@@H](C5)N6)nc(OC[C@@]56CCCN5C[C@H](F)C6)nc4c3F)c21 (stereo partly drawn) [Example 286, 7-(4-((1R,5S)-3,8-diazabicyclo[3.2.1]octan-3-yl)-8-fluoro-2-(((2R,7aS)-2-fluorotetrahydro-1H-pyrrolizin-7a(5H)-yl)methoxy)quinazolin-7-yl)-1-methyl-2,3-dihydro-1H-inden-5-ol] | 0.029 µM
CCc1c(F)ccc2cc(O)cc(-c3ccc4c(N5CC6CCC(C5)[S+]6[O-])nc(OC[C@@]56CCCN5C[C@H](F)C6)nc4c3F)c12 (stereo partly drawn) [Example 162, (1R,5S,8R)-3-(7-(8-ethyl-7-fluoro-3-hydroxynaphthalen-1-yl)-8-fluoro-2-(((2R,7aS)-2-fluorotetrahydro-1H-pyrrolizin-7a(5H)-yl)methoxy)quinazolin-4-yl)-8-thia-3-azabicyclo[3.2.1]octane 8-oxide] | > 2.5 µM
